In patent US8415342B2, “Besifloxacin ophthalmic composition for the treatment or control of infection” (Bausch & Lomb Incorporated, priority 2008, dated 2013):
Converted amounts (≈) assume the structure as drawn. “And” between values parts separate entries of the source, which are not always exact repeats. Equal values may be shown once.

Tests used:
[1] = test system: ocular isolates (S. pneumoniae, S. epidermidis, H. influenzae, and S. aureus); test: MBC versus MIC, all recent ocular isolates tested; assay type: cell-based
Text: The success of in vivo antimicrobial action depends to a large extent on the host's defense mechanisms, which ultimately sequester and kill the microorganisms that have been reduced by the bacteriostatic/bactericidal action of the antibacterial agent. Thus, it is also of interest to profile the bactericidal activity of antimicrobial agents. The assessment of in vitro bactericidal activity can be accomplished in multiple ways, for example, the time-kill method or the determination of the minimum bactericidal concentration (MBC). […] Bactericidal agents are characterized by low MBC:MIC ratios.

bacterial conjunctivitis = test: Study 434: besifloxacin ophthalmic suspension vs Vigamox, TID 5 days; assay type: in vivo, human; settings: for Clinical Resolution (2 indices), No / Clinical Resolution (2 indices), Yes: mITT culture-confirmed as treated; for Microbial Eradication, No / Microbial Eradication, Yes: missing or discontinued imputed as no, as treated
[2] = test system: S. pneumoniae topoisomerase mutants; test: MIC against defined topoisomerase mutants; assay type: cell-based; settings: Streptococcus pneumoniae
[3] = Binding to proteins in human plasma; assay type: in vitro ADME
Text: The relationship between the concentration of besifloxacin in human tear fluid and the concentration required for antimicrobial activity was quantified by calculating the ratios of Cmax/MIC90 and AUC24/MIC90. For the purpose of calculating these PK/PD ratios, a PK model was used to simulate besifloxacin concentrations with a TID dosing regimen. An additional consideration in this analysis is the potential role of protein binding, which could effectively lower the concentration of unbound (free) besifloxacin. The inhibitory effect of protein binding on antibacterial efficacy has been reported for β-lactams; however, there is no general consensus about the role of protein binding on the antibacterial activity of fluoroquinolones (Bergogne-Berezin, 2002; Craig & Ebert, 1989; Drusano, 1988; Merrikin et al., 1983; Turnidge, 1999; Zeitlinger et al., 2008). […] In order to evaluate the potential theoretical maximum impact of protein binding on besifloxacin activity, Cmax/MIC90 and AUC24/MIC90 ratios were calculated based on the PK estimates for total (bound and free) and free (unbound) besifloxacin (Table 10).

E. coli topoisomerase IV = E. coli topoisomerase IV (Escherichia coli, UniProt P0AFI2+P20083); test: Catalytic inhibition of purified topoisomerase IV; assay type: biochemical; settings: IC50 Topo IV, E. coli enzymes
E. coli topoisomerase IV, sequence (P0AFI2 whole entry): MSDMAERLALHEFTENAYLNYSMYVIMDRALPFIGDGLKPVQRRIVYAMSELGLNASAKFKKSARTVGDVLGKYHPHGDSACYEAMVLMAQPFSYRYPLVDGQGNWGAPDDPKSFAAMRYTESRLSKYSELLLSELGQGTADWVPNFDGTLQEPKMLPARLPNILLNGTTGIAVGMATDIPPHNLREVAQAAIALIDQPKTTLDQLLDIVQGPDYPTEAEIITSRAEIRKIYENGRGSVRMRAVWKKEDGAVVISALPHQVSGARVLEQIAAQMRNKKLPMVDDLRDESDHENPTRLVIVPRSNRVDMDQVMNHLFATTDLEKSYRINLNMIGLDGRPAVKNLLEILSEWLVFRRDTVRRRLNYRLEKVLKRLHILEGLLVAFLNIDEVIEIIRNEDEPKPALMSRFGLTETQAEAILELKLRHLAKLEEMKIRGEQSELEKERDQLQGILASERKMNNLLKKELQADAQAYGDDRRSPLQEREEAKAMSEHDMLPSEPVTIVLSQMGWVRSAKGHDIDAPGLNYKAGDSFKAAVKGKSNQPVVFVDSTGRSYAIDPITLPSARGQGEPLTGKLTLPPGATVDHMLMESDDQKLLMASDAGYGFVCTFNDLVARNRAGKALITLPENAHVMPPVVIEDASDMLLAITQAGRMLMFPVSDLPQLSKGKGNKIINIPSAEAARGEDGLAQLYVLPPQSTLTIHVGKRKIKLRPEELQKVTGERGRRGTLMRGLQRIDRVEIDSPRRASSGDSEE
E. coli topoisomerase IV, sequence (P20083 whole entry): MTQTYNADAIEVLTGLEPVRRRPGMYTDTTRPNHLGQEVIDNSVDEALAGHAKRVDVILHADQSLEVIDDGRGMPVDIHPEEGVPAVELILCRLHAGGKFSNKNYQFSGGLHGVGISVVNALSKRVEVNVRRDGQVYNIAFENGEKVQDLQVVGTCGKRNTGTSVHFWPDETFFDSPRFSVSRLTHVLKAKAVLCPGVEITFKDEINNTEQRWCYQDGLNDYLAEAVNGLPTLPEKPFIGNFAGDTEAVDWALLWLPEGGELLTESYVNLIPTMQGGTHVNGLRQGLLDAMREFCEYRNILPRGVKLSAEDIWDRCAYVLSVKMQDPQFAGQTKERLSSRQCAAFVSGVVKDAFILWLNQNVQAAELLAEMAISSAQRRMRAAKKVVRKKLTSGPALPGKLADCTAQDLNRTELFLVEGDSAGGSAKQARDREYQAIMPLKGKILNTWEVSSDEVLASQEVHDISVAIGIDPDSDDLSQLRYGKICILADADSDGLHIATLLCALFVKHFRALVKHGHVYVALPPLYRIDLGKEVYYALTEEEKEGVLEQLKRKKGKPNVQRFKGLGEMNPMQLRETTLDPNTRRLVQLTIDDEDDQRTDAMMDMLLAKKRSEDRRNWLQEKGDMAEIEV

[4] = Predicted PK/PD ratios in tears with simulated TID dosing (Table 10); design: species or system human; settings: for Cmax/MIC90, Free / AUC24/MIC90, Free: tears, free besifloxacin (40% bound); for AUC24/MIC90, Free: predicted TID
S. pneumoniae = test: MIC of clinical trial isolates, Studies 373, 433, 434; assay type: cell-based; settings: Streptococcus pneumoniae, isolates of studies 373, 433, 434; read-out: MIC90
Method: (§1) PFGE testing was performed per standard procedures.
(§2) The antibacterial susceptibility profile of each Visit 1 bacterial isolate was determined for besifloxacin and other antimicrobials.

H. influenzae = test: as above; assay type: cell-based; settings: Haemophilus influenzae, isolates of studies 373, 433, 434; read-out: MIC90
Method: as §1, §2

[5] = Visit 2 (Day 5 ± 1), primary endpoint
[6] = Staphylococcus aureus (MRSA-CR)
[7] = Staphylococcus aureus (MSSA-CR)
[8] = Staphylococcus aureus (all phenotypes)

In the case of `N[C@@H]1CCCCN(c2c(F)cc3c(=O)c(C(=O)O)cn(C4CC4)c3c2Cl)C1` [Besifloxacin, (R)-(+)-(3-amino-2,3,4,5,6,7-hexahydro-1H-azepin-1-yl)-8-chloro-1-cyclopropyl-6-fluoro-1,4,-dihydro-4-oxo-3-quinolinecarboxylic acid], the “isolates with MBC within 4-fold of the MIC” value [1] is reported as “more than 80%”, the “Clinical Resolution (2 indices), No” value (bacterial conjunctivitis; Visit 2 (Day 5 ± 1)) is reported as 105 (41.7) n (%) and the “Microbial Eradication, No” value (bacterial conjunctivitis; Visit 2 (Day 5 ± 1)) is reported as 17 (6.7) n (%). The “Clinical Resolution (2 indices), Yes” value (bacterial conjunctivitis; [5]) was 147 (58.3) n (%), the “Microbial Eradication, Yes” value (bacterial conjunctivitis; [5]) was 235 (93.3) n (%) and the “Clinical Resolution (2 indices), No” value (bacterial conjunctivitis; Visit 3 (Day 8 or 9)) was 39 (15.5) n (%). The “Clinical Resolution (2 indices), Yes” value (bacterial conjunctivitis; Visit 3 (Day 8 or 9)) was 213 (84.5) n (%), the “Microbial Eradication, No” value (bacterial conjunctivitis; Visit 3 (Day 8 or 9)) was 32 (12.7) n (%) and the “Microbial Eradication, Yes” value (bacterial conjunctivitis; Visit 3 (Day 8 or 9)) was 220 (87.3) n (%). The MIC ([2]; S. pneumoniae Wild type) was 0.12 µg/mL (≈ 0.305 µM), the MIC ([2]; S. pneumoniae gyrA S81F) was 0.5 µg/mL (≈ 1.27 µM) and the MIC ([2]; S. pneumoniae parC S79Y) was 0.25 µg/mL (≈ 0.635 µM). For the same compound, the MIC ([2]; S. pneumoniae parC S79Y + gyrA S81F) was 1 µg/mL, the “bound to proteins in human plasma” value [3] was “approximately 40%” and the IC50 (E. coli topoisomerase IV) was 23 µM and 25.4 µM. For the same compound, the “AUC24/MIC90, Total” value [4] was 950, the “Cmax/MIC90, Free” value ([4]; Haemophilus influenzae) was 6100 and the “AUC24/MIC90, Free” value ([4]; Haemophilus influenzae) was 38,010. For the same compound, the “Cmax/MIC90, Free” value [4, 6] was 92, the “AUC24/MIC90, Free” value [4, 6] was 570 and the “Cmax/MIC90, Free” value [4, 7] was 183. The “AUC24/MIC90, Free” value [4, 7] was 1140, the “Cmax/MIC90, Free” value [4, 8] was 732 and the “AUC24/MIC90, Free” value [4, 8] was 4561. The “Cmax/MIC90, Free” value ([4]; Staphylococcus epidermidis) was 732, the “AUC24/MIC90, Free” value ([4]; Staphylococcus epidermidis) was 4561 and the “Cmax/MIC90, Free” value ([4]; Streptococcus pneumoniae) was 2928. For the same compound, the “AUC24/MIC90, Free” value ([4]; Streptococcus pneumoniae) was 18,245, the “Cmax/MIC90, Total” value ([4]; human) was 153 and the MIC90 (S. pneumoniae) was 0.125 µg/mL. For the same compound, the MIC90 (H. influenzae) was 0.06 µg/mL.
